“Also recorded” adds a separate entry of the source.
Key:
[1] = tested on: primary intestinal epithelial cells; assay: screen of dietary compounds and natural products on primary intestinal epithelial cells on collagen hydrogel (Hoechst 33342, EDU, alkaline phosphatase, Muc2); format: cell-based; settings: 48 h incubation at Table 1 concentration; for S-phase or proliferating cells (EDU) / number of nuclei / cell number (Hoechst 33342): relative to control cells cultured in ENR-W; for growth suppression: both number of nuclei and S-phase cells significantly lower than control: p<0.01 versus control cells in ENR-W; for enterocyte phenotype (alkaline phosphatase expression): p=0.01 (#42), p=0.02 (#31), p=0.002 (#51)
Text: FIG. 11. The impact of dietary compounds and natural products on primary colonic epithelium. The percentage of the collagen Daiszein (aglycone of daidzen) surface area occupied by cells (Hoechst 33342-positive) and the normalized EDU (A), alkaline phosphatase and mucin2-positive areas (B) were plotted against the compound number. The EDU, alkaline phosphatase and Muc2 areas were normalized to the total cell area. Alphabetic headings refer to categories described in Table 1.
Strategies to screen the vast number of dietary and metabolite compounds for their impact on proliferation, differentiation and other cell behaviors in the intestine have become increasingly important. However, major challenges exist due to a lack of technologies capable of faithfully duplicating the actions of these compounds on normal, healthy colonic cells. […] These attributes are central to intestinal barrier function and repair in the face of repeated chemical, physical, immune and infectious insults. Additionally controlled proliferation and terminal differentiation are key to avoiding an oncogenic state. Metabolites or natural products minimizing intestinal-cell proliferation without cell death, enhancing cell proliferation, or directing cells into the differentiated lineages are of profound interest for health maintenance and as therapeutics. The compounds represented a range of chemical classes with diverse or unknown impact on primary intestinal cells including fatty acids, bile acids, flavenoids, phytoestrogens, phenols, terpenoids, nitrates, and others. 75,000 cells were cultured on the collagen hydrogel with ENR-W (but with 10 ng/mL Wnt-3A) for 24 h to enable cells to attach to the surface, followed by incubation with the dietary/natural compounds for 48 h. The cells were then analyzed sequentially for four attributes: nuclei (Hoechst 33342), S-phase or proliferating cells (EDU), enterocyte phenotype (high alkaline phosphatase), and goblet cell marker (Muc2) (FIGS. 11A-B). […] In particular, glucosinolates (#68, #69, #70), responsible for the bitterness of cabbage and brussel sprouts, are toxic when consumed at high concentrations and this may in part be due to their direct effects on intestinal cells. […] These included the most of the phenols assayed such as gallic acid (#28), ellagic acid (#29), and punicalagin (#31) but also compounds such as valproate (#6) and […]-carotene (#58) all of which are recognized in the literature as inducing cell differentiation. […] Molecules promoting enterocyte formation may exert some of their beneficial effects by enhancing intestinal barrier and/or absorptive function and thus may be worthy of additional investigation. […] Matairesinol increases COX-2-derived prostaglandin E2 in Caco-2 cells and prostaglandin E2 has been characterized as inducing Goblet cell formation in the colon to increase mucous secretion. Screening primary colon epithelium directly links the matairesinol to increased mucous production and this may be through a prostaglandin E pathway.

CYP1A1 = assay: ethoxyresorufin O-deethylase (EROD) assay of CYP1A1 induction in the 2D colonic epithelial monolayer; format: cell-based, mouse; settings: 0.1 μM TCDD
Procedure: FIG. 7. […] Top panel, day 0. Bottom panel, day 5. White dotted line indicates the perimeter of the insert. (B) SEM images of 2D monolayer. […] (C) Basal EROD activity and inducibility in 2D monolayer cells. 2D monolayer was cultured under ENR-WB for 5 days. […] CYP1A1 enzyme activity was determined using the ethoxyresorufin O-deethylase (EROD) assay, n=3.
Intestine is a vital organ that has many important functions (such as absorption, secretion, etc.). One function is metabolism through cytochrome P450 (CYP) enzyme activity that provides the principal, initial source of biotransformation/detoxification of ingested xenobiotics (Kaminsky, L. S. et al., Critical Reviews in Toxicology 21, 407-422 (1992)). Among the CYPs, CYP1A1 plays a physiological role in the degradation of estradiol into 2-OH-estradiol (Paine, M. F. et al., Drug Metabolism and Disposition 27, 360-364 (1999)). In vivo, CYP1A1 in rat intestines can be induced by feeding the rats with polycyclic aromatic hydrocarbons (PAHs) (Martignoni, M. et al., Chemico-Biological Interactions 151, 1-11 (2004)). […] The CYP1A1 enzyme activity was determined using an ethoxyresorufin O-deethylase (EROD) assay (Jones, S. P. et al., Ecotoxicology 23, 802-808 (2014)).

Caco-2 cells = settings: cited from earlier work

| Structure (SMILES) | S-phase or proliferating cells (EDU) [1] | number of nuclei / cell number (Hoechst 33342) [1] | further results |
| --- | --- | --- | --- |
| O=c1oc2c(O)c(O)cc3c(=O)oc4c(O)c(O)cc1c4c23 [#29, Ellagic Acid] | suppressed proliferation | did not greatly diminish cell number | – |
| Clc1cc2c(cc1Cl)Oc1cc(Cl)c(Cl)cc1O2 [TCDD, 2,3,7,8-tetrachlorodibenzo-p-dioxin] | – | – | CYP1A1 activity increased compared with the cells treated with toluene vehicle (CYP1A1; 2D monolayer cultured under ENR-WB 5 days, treated 20 hours, EROD assay): 40 fold; CYP1A1 enzyme activity induction by PAHs (CYP1A1; 2D monolayer treated 20 hours, 10 μM βNF, 1 μM BaP, toluene vehicle): effectively demonstrated |
| COc1cc(-c2oc3cc(O)cc(O)c3c(=O)c2O)ccc1O [#21, Isorhamnetin] | increased cell numbers in S-phase | – | – |
| O=S(=O)(O)ON=C(CCc1ccccc1)S[C@@H]1O[C@H](CO)[C@@H](O)[C@H](O)[C@H]1O [#69, Gluconasturtiin] | – | – | growth suppression: both number of nuclei and S-phase cells significantly lower than control [1]: growth suppressive |
| CN[C@@H]1C[C@H]2O[C@@](C)([C@@H]1OC)n1c3ccccc3c3c4c(c5c6ccccc6n2c5c31)C(=O)NC4 [#32, Aglycones (Staurosporine), reference compound] | decreased | significantly increased | – |
| CC12CCC(CC1)C(C)(C)O2 [#42, Eucalyptol] | minimized cell proliferation | – | enterocyte phenotype (alkaline phosphatase expression) ([1]; relative to control): increasing alkaline phosphatase expression |
| O=C(O)c1cc(O)c(O)c(O)c1 [#28, Gallic Acid] | suppressed proliferation | did not greatly diminish cell number | – |
| C/C(=C\CO)CCC[C@H](C)CCC[C@H](C)CCCC(C)C [#51, Phytol] | – | without cell number reduction | enterocyte phenotype (alkaline phosphatase expression) ([1]; relative to control): directed cells towards the enterocyte lineage |
| CC1=C(/C=C/C(C)=C/C=C/C(C)=C/C=C/C=C(C)/C=C/C=C(C)/C=C/C2=C(C)CCCC2(C)C)C(C)(C)CCC1 [#58, β-carotene] | suppressed proliferation | did not greatly diminish cell number | – |
| O=C1O[C@H]2[C@@H]3OC(=O)c4cc(O)c(O)c(O)c4-c4c(O)c(O)c5oc(=O)c6c(c(O)c(O)c7oc(=O)c4c5c76)-c4c(cc(O)c(O)c4O)C(=O)OC[C@H]3OC(O)[C@@H]2OC(=O)c2cc(O)c(O)c(O)c2-c2c1cc(O)c(O)c2O (mixture of isomers) [#31, Punicalagin] | suppressed proliferation | did not greatly diminish cell number; also recorded: without cell number reduction | enterocyte phenotype (alkaline phosphatase expression) ([1]; relative to control): directed cells towards the enterocyte lineage |
| S=C=NCc1ccccc1 [#68, Glucotropaeolin isothiocyanate] | – | – | growth suppression: both number of nuclei and S-phase cells significantly lower than control [1]: growth suppressive |
| C[S+]([O-])CCCC/C(=N\OS(=O)(=O)O)S[C@@H]1O[C@H](CO)[C@@H](O)[C@H](O)[C@H]1O (some centres unmarked) [#70, Glucoraphanin] | – | – | growth suppression: both number of nuclei and S-phase cells significantly lower than control [1]: growth suppressive |
| COc1cc(C[C@H]2COC(=O)[C@@H]2Cc2ccc(O)c(OC)c2)ccc1O [#77, Matairesinol] | – | – | COX-2-derived prostaglandin E2 (Caco-2 cells): increases; goblet cell marker Muc2 or mucin expression ([1]; relative to control, p<0.01): significantly increased |

Source: US11193110B2, “Methods to generate gastrointestinal epithelial tissue constructs” (The University of North Carolina at Chapel Hill, priority 2015, dated 2021)
